Consider one compound from US5300668A, “Certain esters of 1-(4-X-methylphenyl)cyclopent-3-ene-1-carboxylic acid, wherein X is a trialkylsilyloxy, bromo or hydroxy group, as intermediates” (Pfizer Inc., priority 1993, dated 1994).

Assay [1] deals with mean arterial pressure. Put plainly: in vivo blood pressure lowering in low sodium diet, furosemide-treated rats. Particulars: oral or parenteral dosing; sodium-depleted Sprague-Dawley rats. The protocol: The ability of the compounds of the invention to lower blood pressure in mammals was determined by the following in vivo protocol. Sprague-Dawley rats are placed on a low sodium diet (Purina Labs, 0.07% sodium) for 15 days. On days 11 and 13 of this period, the rats are given furosemide (Lasix, 8 mg/kg, i.m.). On day 13, the animals are anesthetized with a pentobarbital-chloral hydrate mixture (30 mg/kg pentobarbital sodium and 10 mg/kg chloral hydrate, i.p.) and the carotid artery and jugular vein are cannulated using PE50 tubing (Clay-Adams). After a 24 hour recovery period, the animals are injected on day 14 with Lasix (10 mg/kg, i.m.) and are placed in plexiglass chambers for blood pressure recording. […] When possible, blood pressure is also checked after 24 hours. According to this protocol, the compound of the invention is effective in lowering mean arterial pressure at oral dosages from about 0.1 mg/kg to about 30 mg/kg, and at parenteral dosages from about 0.01 mg/kg to about 10 mg/kg, with a duration of action of greater than 24 hours.

In assay [2] the target is T1, rat liver AII receptors (Rattus norvegicus, UniProt P25095).
T1 construct: from tissue; host or cells: liver membranes (100,000 g pellet) of male Sprague-Dawley rats
T1 sequence (P25095 1-359): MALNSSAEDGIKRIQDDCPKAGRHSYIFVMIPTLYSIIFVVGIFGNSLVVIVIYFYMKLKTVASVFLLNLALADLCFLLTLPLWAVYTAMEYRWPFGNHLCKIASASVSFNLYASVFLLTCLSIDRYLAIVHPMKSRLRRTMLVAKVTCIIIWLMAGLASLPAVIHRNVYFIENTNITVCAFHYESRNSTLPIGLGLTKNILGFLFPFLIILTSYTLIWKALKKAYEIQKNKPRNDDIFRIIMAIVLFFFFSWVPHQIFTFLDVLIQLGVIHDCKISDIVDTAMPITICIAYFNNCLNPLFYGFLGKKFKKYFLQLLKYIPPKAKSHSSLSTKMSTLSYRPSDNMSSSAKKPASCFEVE
Put plainly: in vitro AII rat liver binding assay (displacement of 125I SARILE AII). Particulars: displacement of 125I SARILE AII from rat liver membranes; assay run with or without BSA; read-out: IC50 (concentration of compound which inhibits binding by 50%). The protocol:
The compound of the present invention is readily adapted to clinical use as a modulator of AII action at the AII receptor. The ability of the compound to modulate AII action was determined by an in vitro AII rat liver binding assay which measures its ability to displace ^125 I sarcosine-1, isoleucine-8, angiotensin II (SARILE AII, obtained from New England Nuclear) from rat liver AII receptors. For this assay, the following materials are used.
Homogenation buffer (10 mM Tris, 0.2M sucrose, 1.0 mM EDTA), prepared using 1.21 g Tris base, […] sucrose and 336 mg EDTA in 1000 ml water, adjusted to pH 7.4 using HCl.
Buffer A (50 mM Tris, 5 mM MgCl2), prepared using 6.05 g Tris base and 1.02 g MgCl2.6H2 O in 1000 ml water.
Assay buffer, prepared using 200 ml Buffer A and 0.5 g BSA. […]
The compound being tested is made up to an initial concentration of 2 mM in 100% DMSO. […] The filters are cut, placed in test tubes and counted on a Gamma Counter. The mean for all triplicate points are calculated and total specific binding is calculated by subtracting nonspecific counts from total counts. Binding in the presence of compound (COUNTS) is calculated by subtracting nonspecific counts from counts in the presence of compound. Percent binding of SARILE All in the presence of compound is calculated by dividing COUNTS by total specific counts. […]
(In general: Displacement assays read how much labelled ligand stays bound in the presence of the test substance.)

With `CCc1nc2c(C)cc(C)nc2n1Cc1ccc(C2(C(=O)O)CC=CC2)cc1` [Example 1, 1-[4'-(2"-ethyl-5",7"-dimethylimidazo[4,5-b]pyridin-3-yl)methylphenyl]cyclopent-3-ene-1-carboxylic acid], in assay [1], the “duration of action (lowering of mean arterial pressure)” value is reported as “greater than 24 hours”. Further, the IC50 in assay [2] is < 100 nM.
